This note sets out measurements from US9056099B2, “Compositions and methods for treating viral diseases” (NovaDrug, LLC, priority 2010, dated 2015).

Structures are written as SMILES.

In the experiment the test system is HCV (JFH-1) in Huh7-1 cells. Briefly: Assay for anti-HCV efficacy: JFH-1 HCV infection of Huh7-1 cultures, intracellular HCV RNA by RT-qPCR. Type of experiment: cell-based, Hepatitis C virus. Particulars: Compound Example 1 series; % viral titer at 5 μM or 15 μM; HCV-infected Huh7-1 cultures. From the text: In the past, HCV studies involved mainly infected patients and chimpanzees. Recently, a robust HCV infection system was developed with cells derived from the Huh-7 human hepatoma cell line (see, for example, Yu et al., “Development of a cell-based hepatitis C virus infection fluorescent resonance energy transfer assay for high-throughput antiviral compound screening” Antimicrob Agents Chemother. 2009 53:4311-4319 for additional details regarding growing virus stocks, maintenance of the Huh-7 cells, infection parameters, and HCV titers determinations; and Yu & Uprichard “Cell-based hepatitis C virus infection fluorescence resonance energy transfer (FRET) assay for antiviral compound screening” Curr Protoc Microbiol. 2010; Chapter 17: Unit 17.5). Briefly, the assay is based on the unique JFH-1 HCV consensus cDNA derived from an HCV patient. Using reverse genetics, the infectious virus can be rescued from this HCV clone. The recovered viable JFH virus can be passaged serially in Huh-7 cells. For this reason, this system is amenable for testing the activity of potential drugs for their anti-HCV efficacy. The antiviral activity of the compounds described herein is tested in this system.
Initially, 6×10^3 Huh7-1 cells are incubated overnight in each well of collagen-coated BioCoat 96-well plates (BD Biosciences, Bedford, Mass.) in 0.2 mL 10% Medium composed of Dulbecco's modified Eagle's medium supplemented with 10% fetal bovine serum. Subsequently, at 2 day intervals, the cultures are replenished with fresh 0.2 mL 10% Medium. Once the cultures become confluent, they are continually replenished at 2 day intervals with fresh 0.2 mL 10% Medium that also includes 1% dimethyl sulfoxide (DMSO). After 20 days of these replenishments, the Huh7-1 cultures are incubated with fresh 1% Medium (same as 10% Medium except that the serum level is 1%) containing HCV at a multiplicity of infection (MOI) of 0.05 focus forming units (ffu)/cell. The HCV (JFH-1wt Huh7) stock titer is 1.5×10^5 ffu/mL. The next day (day 1 post-infection) and 2 days later (day 3 post-infection) the media are replenished with fresh 1% Medium containing the test compounds dissolved in DMSO. On the 5th day of treatment with the compounds, cell lysates are collected for RNA isolation and Real Time-quantitative Reverse Transcription Polymerase Chain Reaction (RT-qPCR) and culture media are collected for cytotoxicity analysis.
Total RNA is isolated from cells by the guanidine thiocyanate method using standard protocols. One μg RNA is used for cDNA synthesis using TaqMan reverse transcription reagents (Applied Biosystems, Foster City, Calif.) followed by real-time PCR using an Applied Biosystems 7300 real-time thermocycler. Illustrative thermal cycling consists of initial denaturation of 10 min at 95° C. followed by 40 cycles of denaturation (15 s at 95° C.) and annealing/extension (1 m at 60° C.). HCV and human glyceraldehyde-3-phosphate dehydrogenase (GAPDH) RNA levels are determined relative to a standard curve of serial dilutions of plasmid containing JFH-1 HCV or GAPDH cDNA. The PCR primers used to detect GAPDH and HCV are illustratively: GAPDH (NMX002046) 5′-GAAGGTGAAGGTCGGAGTC-3′ (SEQ ID NO: 5) (sense) and 5′-[…]-3′ (SEQ ID NO: 6) (anti-sense) JFH-1 HCV (AB047639) 5′-TCTGCGGAACCGGTGAGTA-3′ (SEQ ID NO: 7) (sense) and 5′-TCAGGCAGTACCACAAGGC-3′ (SEQ ID NO: 8) (anti-sense).
FIGS. 1-7 illustrate the intracellular HCV RNA levels when cultures are incubated with the selected test compounds at the doses shown. When HCV RNA levels are compared among the samples, the data may indicate that the compounds cause a dose dependent decrease in HCV RNA levels relative to the mock-treated (no compound added) HCV infected control.
A general note: Real-time PCR tracks product formation cycle by cycle.
For the molecule `O=C(c1ccccc1F)N1CC(c2ccsc2)C2CN(Cc3ccccc3F)CCC21` (stereo not drawn), the “Activity (viral titer)” value is “− (>60% viral titer at 15 μM (highest concentration tested))”.

For the molecule `O=C(c1ccccc1F)N1C[C@H](c2ccsc2)[C@H]2CN(Cc3ccccn3)CC[C@H]21`, the “Activity (viral titer)” value is reported as “− (>60% viral titer at 15 μM (highest concentration tested))”.

Turning to `O=C(c1ccccc1F)N1C[C@H](c2ccsc2)[C@H]2CN(Cc3cccc(F)c3)CC[C@H]21`, the “Activity (viral titer)” value is on record as “++ (≦60% viral titer at 5 μM)”.

In the case of `Cc1cccc(CN2CCC3C(C2)C(c2ccsc2)CN3C(=O)c2ccccc2F)c1` (stereo not drawn), the “Activity (viral titer)” value is recorded as “++ (≦60% viral titer at 5 μM)”.

As for `O=C(c1ccccc1F)N1C[C@H](c2ccsc2)[C@H]2CN(Cc3cccnc3)CC[C@H]21`, the “Activity (viral titer)” value was “− (>60% viral titer at 15 μM (highest concentration tested))”.

Turning to `Cc1ccc(CN2CC[C@@H]3[C@H](C2)[C@@H](c2ccsc2)CN3C(=O)c2ccccc2F)cc1`, the “Activity (viral titer)” value is listed as “− (>60% viral titer at 15 μM (highest concentration tested))”.

`O=C(c1ccccc1F)N1CC(c2ccsc2)C2CN(Cc3ccncc3)CCC21` (stereo not drawn): the “Activity (viral titer)” value is “− (>60% viral titer at 15 μM (highest concentration tested))”.

As to `O=C(c1ccccc1F)N1CC(c2ccsc2)C2CN(Cc3ccccc3)CCC21` (stereo not drawn), the “Activity (viral titer)” value is given as “− (>60% viral titer at 15 μM (highest concentration tested))”.

Regarding `COc1ccc(CN2CCC3C(C2)C(c2ccc(F)cc2)CN3C(=O)c2ccccn2)cc1` (stereo not drawn), the “Activity (viral titer)” value was “− (>60% viral titer at 15 μM (highest concentration tested))”.

As for `COc1cccc(CN2CCC3C(C2)C(c2ccc(F)cc2)CN3C(=O)c2ccccn2)c1` (stereo not drawn), the “Activity (viral titer)” value is given as “− (>60% viral titer at 15 μM (highest concentration tested))”.

For the molecule `O=C(c1ccccn1)N1CC(c2ccc(F)cc2)C2CN(Cc3ccc(Cl)cc3)CCC21` (stereo not drawn), the “Activity (viral titer)” value is “− (>60% viral titer at 15 μM (highest concentration tested))”.

As to `O=C(c1cccs1)N1CC(c2ccc(F)cc2)C2CN(Cc3ccccc3F)CCC21` (stereo not drawn), the “Activity (viral titer)” value is listed as “+ (≦60% viral titer at 15 μM)”.

On to `O=C(c1cccnc1)N1C[C@H](c2ccc(F)cc2)[C@H]2CN(Cc3ccccc3)CC[C@H]21`, for which the “Activity (viral titer)” value was “++ (≦60% viral titer at 5 μM)”.

As to `O=C(c1ccc(F)cc1)N1C[C@H](c2ccsc2)[C@H]2CN(Cc3cccs3)CC[C@H]21`, the “Activity (viral titer)” value is recorded as “− (>60% viral titer at 15 μM (highest concentration tested))”.

Turning to `O=C(c1ccncc1)N1CC(c2ccsc2)C2CN(Cc3cccs3)CCC21` (stereo not drawn), the “Activity (viral titer)” value is given as “− (>60% viral titer at 15 μM (highest concentration tested))”.

As for `COc1cccc([C@H]2CN(C(=O)c3ccccc3)[C@@H]3CCN(Cc4ccccc4F)C[C@H]23)c1`, the “Activity (viral titer)” value was “+ (≦60% viral titer at 15 μM)”.

`COc1cccc([C@H]2CN(C(=O)c3ccccc3)[C@@H]3CCN(Cc4cccc(F)c4)C[C@H]23)c1`: the “Activity (viral titer)” value is on record as “− (>60% viral titer at 15 μM (highest concentration tested))”.

As to `COc1cccc(C2CN(C(=O)c3ccccc3)C3CCN(Cc4ccsc4)CC23)c1` (stereo not drawn), the “Activity (viral titer)” value is listed as “++ (≦60% viral titer at 5 μM)”.

As to `COc1cccc(C2CN(C(=O)c3ccccc3)C3CCN(Cc4ccc(C)cc4)CC23)c1` (stereo not drawn), the “Activity (viral titer)” value is given as “+ (≦60% viral titer at 15 μM)”.

Take `COc1cccc([C@H]2CN(C(=O)c3ccccc3)[C@@H]3CCN(Cc4ccccc4)C[C@H]23)c1`: the “Activity (viral titer)” value is reported as “− (>60% viral titer at 15 μM (highest concentration tested))”.

On to `COc1ccc(CN2CC[C@@H]3[C@H](C2)[C@@H](c2ccc(F)cc2)CN3C(=O)c2ccccc2)cc1`, for which the “Activity (viral titer)” value is “++ (≦60% viral titer at 5 μM)”.

For `O=C(c1ccccc1)N1CC(c2ccc(F)cc2)C2CN(Cc3ccccc3)CCC21` (stereo not drawn), the “Activity (viral titer)” value is “++ (≦60% viral titer at 5 μM)”.

Turning to `COc1ccc(C2CN(C(=O)c3ccccc3)C3CCN(Cc4ccccc4F)CC23)cc1` (stereo not drawn), the “Activity (viral titer)” value was “++ (≦60% viral titer at 5 μM)”.

For the molecule `COc1ccc(C2CN(C(=O)c3ccccc3)C3CCN(Cc4cccs4)CC23)cc1` (stereo not drawn), the “Activity (viral titer)” value was “− (>60% viral titer at 15 μM (highest concentration tested))”.
